This note sets out measurements from patent US9676714B2, “Sulfonylindole derivatives and method for preparing the same” (Daewoong Pharmaceutical Co., Ltd., priority 2013, dated 2017).

Test [1] concerns the target T1, proton pump (H+/K+-ATPase) (Sus scrofa, UniProt P19156).
T1 construct: Gastric vesicles were prepared from hog stomach via centrifugal separation; from tissue; host or cells: hog stomach (gastric vesicles, method of Rabon et al. 1988)
The test is described as follows: Measurement of inhibitory effects on proton pump (H+/K+-ATPase) activities. Type of test: biochemical. The conditions noted are these: hog gastric vesicles, K+-specific H+/K+-ATPase activity, Tris-HCl buffer pH 7.4, 37° C. for 40 minutes, malachite green Pi readout. The method in brief: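 Hog gastric vesicles in 60 mmol/l Tris-HCl pH 7.4 with 0.5% DMSO were treated with compounds at room temperature; reaction was started with 10 μl of 10 mmol/l ATP stock. Released Pi was read at 570 nm, K+-specific activity taken as the ±K+ difference. IC50 from 4-parameter logistic fit.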

Test [2] relates to basal gastric acid secretion. The test is described as follows: Inhibitory effect on the basal gastric acid secretion in pylorus-ligated rats (Shay's rat model). Type of test: in vivo, Sprague Dawley (SD) rats. The following applies: 5 h, male SD rats, 3 mg/kg/2 ml into the duodenum, five hours after the ligation, total gastric acid secretion vs control group. The protocol:
3) Inhibitory Effect on the Basal Gastric Acid Secretion in Pylorus-Ligated Rats
Assays for determining inhibitory effect of the compounds of the present invention on the basal gastric acid secretion was performed according to Shay's rat model (Shay, H., et al., 1945, gastroenterology, 5, p. 43-61). Male Sprague Dawley (SD) rats with a body weight in the range of 180˜220 g were divided into test (n=5) and control groups (n=5), and fasted for 18 hours with free access to water. Under isoflurane anesthesia, the abdomens of the rats were incised and then the pylorus was ligated. After the ligation, the control groups were administered with only 10% ethanol, 20% polyethylene glycol (PEG) 400, and 10% aqueous Cremophor solution through the duodenum, and the other groups were administered with test compounds suspended in 10% ethanol, 20% PEG 400, and 10% aqueous Cremophor solution at a concentration of 3 mg/kg/2 ml into the duodenum. Five hours after the ligation, the experimental animals were euthanized and their stomach contents were collected. The thus obtained contents were centrifuged at 4,000×g for 10 minutes, and the supernatant was recovered to obtain gastric juice therefrom. The amount of the gastric juice and its pH were measured. The acidity of the gastric juice was determined by 0.1 N-NaOH volume (ueq/mL) for automatic titration of gastric acid to pH 7.0. The total acid output was obtained by multiplying the gastric acidity by the amount of gastric juice. Inhibition Activity (%) of Test Compounds=(total gastric acid secretion in control group−total gastric acid secretion in groups treated with test compounds)/total gastric acid secretion in control group×100

Counter-ions that a name gives are not always drawn.

T1 sequence (P19156 whole entry): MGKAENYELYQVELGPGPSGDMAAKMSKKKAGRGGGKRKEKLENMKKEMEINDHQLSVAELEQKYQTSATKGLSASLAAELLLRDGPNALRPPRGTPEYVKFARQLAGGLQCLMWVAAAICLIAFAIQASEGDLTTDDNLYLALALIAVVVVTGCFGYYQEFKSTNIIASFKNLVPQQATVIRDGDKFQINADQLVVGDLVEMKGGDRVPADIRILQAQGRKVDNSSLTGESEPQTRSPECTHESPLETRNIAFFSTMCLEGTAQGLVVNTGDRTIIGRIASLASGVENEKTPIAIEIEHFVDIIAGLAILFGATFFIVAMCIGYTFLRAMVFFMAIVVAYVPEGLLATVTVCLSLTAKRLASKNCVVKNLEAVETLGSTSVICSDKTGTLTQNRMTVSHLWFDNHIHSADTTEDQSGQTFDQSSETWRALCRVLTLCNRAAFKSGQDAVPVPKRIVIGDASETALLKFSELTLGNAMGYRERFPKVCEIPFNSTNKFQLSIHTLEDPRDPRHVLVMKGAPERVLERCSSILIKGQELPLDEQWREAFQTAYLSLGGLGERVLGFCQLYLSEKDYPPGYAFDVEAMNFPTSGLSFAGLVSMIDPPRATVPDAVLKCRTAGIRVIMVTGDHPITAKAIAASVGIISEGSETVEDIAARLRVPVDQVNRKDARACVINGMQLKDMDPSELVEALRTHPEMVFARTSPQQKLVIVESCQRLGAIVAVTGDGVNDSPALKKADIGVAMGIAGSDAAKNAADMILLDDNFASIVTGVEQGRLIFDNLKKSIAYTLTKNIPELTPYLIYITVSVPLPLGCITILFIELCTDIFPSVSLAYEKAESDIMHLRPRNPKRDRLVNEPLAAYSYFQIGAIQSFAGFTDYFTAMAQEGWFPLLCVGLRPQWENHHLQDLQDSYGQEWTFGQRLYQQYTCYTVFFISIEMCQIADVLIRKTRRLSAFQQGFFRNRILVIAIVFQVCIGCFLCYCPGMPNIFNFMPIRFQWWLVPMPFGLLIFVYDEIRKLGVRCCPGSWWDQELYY
T1 sequence (P18434 whole entry partner): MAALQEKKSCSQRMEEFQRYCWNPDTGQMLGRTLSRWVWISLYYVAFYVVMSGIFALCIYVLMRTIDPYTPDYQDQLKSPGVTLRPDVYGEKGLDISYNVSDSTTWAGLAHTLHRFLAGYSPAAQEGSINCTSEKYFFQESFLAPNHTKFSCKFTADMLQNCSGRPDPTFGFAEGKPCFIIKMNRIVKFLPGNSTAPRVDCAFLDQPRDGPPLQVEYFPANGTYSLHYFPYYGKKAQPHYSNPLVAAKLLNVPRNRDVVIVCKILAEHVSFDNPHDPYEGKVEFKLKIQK

A word on the IC50: it is the concentration needed to halve the response being measured. A word on the inhibition in vivo: it is the change of the read-out against control, counted positive when it falls. As for `CNCc1cn(S(=O)(=O)c2cccnc2)c2cc(Nc3ccc(C)cc3F)ccc12` [Example 1, N-(2-fluoro-4-methylphenyl)-3-((methylamino)methyl)-1-(pyridin-3-ylsulfonyl)-1H-indol-6-amine hydrochloride], the IC50 in test [1] is 180 nM. This compound also gave an inhibition in vivo at 3 mg/kg in test [2] of 58%.
For `CNCc1cn(S(=O)(=O)c2cccnc2)c2cc(Nc3ccc(C)cc3Cl)ccc12` [Example 22, N-(2-chloro-4-methylphenyl)-3-((methylamino)methyl)-1-(pyridin-3-ylsulfonyl)-1H-indol-6-amine] the same measures were 210 nM and 48%.
The compound `CNCc1cn(S(=O)(=O)c2cccnc2)c2cc(Nc3ccc(Cl)cc3F)ccc12` [Example 28, N-(4-chloro-2-fluorophenyl)-3-((methylamino)methyl)-1-(pyridin-3-ylsulfonyl)-1H-indol-6-amine hydrochloride] had an IC50 in test [1] of 740 nM. Moreover, the inhibition in vivo at 3 mg/kg in test [2] is 44%.
In the same order, the values of `CNCc1cn(S(=O)(=O)c2cccnc2)c2cc(Nc3ccc(Cl)cc3Cl)ccc12` [Example 29, N-(2,4-dichlorophenyl)-3-((methylamino)methyl)-1-(pyridin-3-ylsulfonyl)-1H-indol-6-amine hydrochloride] are 130 nM and 44%.
As to `COC(=O)c1cn(S(=O)(=O)c2cccnc2)c2cc(-c3ccc(F)nc3)ccc12` [Example 336, methyl 6-(6-fluoropyridin-3-yl)-1-(pyridin-3-ylsulfonyl)-1H-indol-3-carboxylate], the 50% inhibitory concentration (IC50) in test [1] worked out at 2700 nM.
Regarding `COC(=O)c1cn(S(=O)(=O)c2ccc(Cl)nc2)c2cc(-c3ccc(F)nc3)ccc12` [Example 337, methyl 1-((6-chloropyridin-3-yl)sulfonyl)-6-(6-fluoropyridin-3-yl)-1H-indol-3-carboxylate], the concentration for half-maximal inhibition (IC50) in test [1] turned out to be 3150 nM.
On the same count and under the same terms, with `COC(=O)c1cn(S(=O)(=O)c2cccnc2)c2cc(-c3ccc(OC)nc3)ccc12` [Example 338, methyl 6-(6-methoxypyridin-3-yl)-1-(pyridin-3-ylsulfonyl)-1H-indol-3-carboxylate] the figure was 3500 nM; with `CNCc1cn(S(=O)(=O)c2cccc(F)c2)c2cc(Nc3ccc(C)cc3F)cnc12` [Example 339, N-(2-fluoro-4-methylphenyl)-1-((3-fluorophenyl)sulfonyl)-3-((methylamino)methyl)-1H-pyrrolo[3,2-b]pyridin-6-amine hydrochloride], 370 nM; with `CNCc1cn(S(=O)(=O)c2cccc(F)c2)c2cc(Nc3ccc(C)cc3OC(F)(F)F)cnc12` [Example 340, 1-((3-fluorophenyl)sulfonyl)-N-(4-methyl-2-(trifluoromethoxy)phenyl)-3-((methylamino)methyl)-1H-pyrrolo[3,2-b]pyridin-6-amine hydrochloride], 570 nM.
The compound `CNCc1cn(S(=O)(=O)c2cccc(F)c2)c2cc(Nc3ccc(Cl)cc3C)cnc12` [Example 341, N-(4-chloro-2-methylphenyl)-1-((3-fluorophenyl)sulfonyl)-3-((methylamino)methyl)-1H-pyrrolo[3,2-b]pyridin-6-amine hydrochloride] returned a concentration for half-maximal inhibition (IC50) in test [1] of 380 nM. Against the preceding compound, the IC50 is about 1.5-fold lower.
Same read-out and setting: next, `CNCc1cn(S(=O)(=O)c2cccc(F)c2)c2cc(Nc3ccc(OC(F)(F)F)cc3OC)cnc12` [Example 343, 1-((3-fluorophenyl)sulfonyl)-N-(2-methoxy-4-(trifluoromethoxy)phenyl)-3-((methylamino)methyl)-1H-pyrrolo[3,2-b]pyridin-6-amine hydrochloride]: 1920 nM; `CNCc1cn(S(=O)(=O)c2cccc(F)c2)c2cc(Nc3ccc(Cl)nc3C)cnc12` [Example 344, N-(6-chloro-2-methylpyridin-3-yl)-1-((3-fluorophenyl)sulfonyl)-3-((methylamino)methyl)-1H-pyrrolo[3,2-b]pyridin-6-amine hydrochloride]: 970 nM; `CNCc1cn(S(=O)(=O)c2cccnc2)c2cc(Nc3ccc(C)cc3Cl)cnc12` [Example 345, N-(2-chloro-4-methylphenyl)-3-((methylamino)methyl)-1-(pyridin-3-ylsulfonyl)-1H-pyrrolo[3,2-b]pyridin-6-amine hydrochloride]: 120 nM.
On the same count and under the same terms, with `CNCc1cn(S(=O)(=O)c2cccnc2)c2cc(Nc3ccc(F)cc3C)cnc12` [Example 346, N-(4-fluoro-2-methylphenyl)-3-((methylamino)methyl)-1-(pyridin-3-ylsulfonyl)-1H-pyrrolo[3,2-b]pyridin-6-amine hydrochloride] the figure was 230 nM; with `CNCc1cn(S(=O)(=O)c2cccnc2)c2cc(Nc3ccc(F)cc3Cl)cnc12` [Example 347, N-(2-chloro-4-fluorophenyl)-3-((methylamino)methyl)-1-(pyridin-3-ylsulfonyl)-1H-pyrrolo[3,2-b]pyridin-6-amine hydrochloride], 180 nM; with `CNCc1cn(S(=O)(=O)c2cccnc2)c2cc(Nc3ccc(Cl)cc3C)cnc12` [Example 348, N-(4-chloro-2-methylphenyl)-3-((methylamino)methyl)-1-(pyridin-3-ylsulfonyl)-1H-pyrrolo[3,2-b]pyridin-6-amine hydrochloride], 200 nM.
With `CNCc1cn(S(=O)(=O)c2cccnc2)c2cc(Nc3ccc(Cl)cc3Cl)cnc12` [Example 349, N-(2,4-dichlorophenyl)-3-((methylamino)methyl)-1-(pyridin-3-ylsulfonyl)-1H-pyrrolo[3,2-b]pyridin-6-amine hydrochloride], the midpoint of inhibition in test [1], the IC50, lay at 280 nM.
On the same count and under the same terms, with `CNCc1cn(S(=O)(=O)c2cncc(F)c2)c2cc(Nc3ccc(C)cc3Cl)cnc12` [Example 350, N-(2-chloro-4-methylphenyl)-1-((5-fluoropyridin-3-yl)sulfonyl)-3-((methylamino)methyl)-1H-pyrrolo[3,2-b]pyridin-6-amine hydrochloride] the figure was 260 nM; with `CNCc1cn(S(=O)(=O)c2cncc(F)c2)c2cc(Nc3ccc(F)cc3C)cnc12` [Example 351, N-(4-fluoro-2-methylphenyl)-1-((5-fluoropyridin-3-yl)sulfonyl)-3-((methylamino)methyl)-1H-pyrrolo[3,2-b]pyridin-6-amine hydrochloride], 350 nM.
As to `CNCc1cn(S(=O)(=O)c2cncc(F)c2)c2cc(Nc3ccc(F)cc3Cl)cnc12` [Example 352, N-(2-chloro-4-fluorophenyl)-1-((5-fluoropyridin-3-yl)sulfonyl)-3-((methylamino)methyl)-1H-pyrrolo[3,2-b]pyridin-6-amine hydrochloride], 250 nM corresponded to half-maximal inhibition in test [1] (IC50).
Still for that read-out and setting: with `CNCc1cn(S(=O)(=O)c2cccc(F)c2)c2cc(Nc3ccc(C)cc3Cl)ncc12` [Example 353, N-(2-chloro-4-methylphenyl)-1-((3-fluorophenyl)sulfonyl)-3-((methylamino)methyl)-1H-pyrrolo[3,2-c]pyridin-6-amine hydrochloride] the figure was 830 nM; with `CNCc1cn(S(=O)(=O)c2cccc(F)c2)c2cc(Nc3ccc(F)cc3C)ncc12` [Example 354, N-(4-fluoro-2-methylphenyl)-1-((3-fluorophenyl)sulfonyl)-3-((methylamino)methyl)-1H-pyrrolo[3,2-c]pyridin-6-amine hydrochloride], 800 nM.
As to `CNCc1cn(S(=O)(=O)c2cccc(F)c2)c2cc(Nc3ccc(F)cc3Cl)ncc12` [Example 355, N-(2-chloro-4-fluorophenyl)-1-((3-fluorophenyl)sulfonyl)-3-((methylamino)methyl)-1H-pyrrolo[3,2-c]pyridin-6-amine hydrochloride], the concentration for half-maximal inhibition (IC50) in test [1] came to 480 nM.
For the compound `CNCc1cn(S(=O)(=O)c2cccc(F)c2)c2cc(Nc3ccc(Cl)nc3Cl)ncc12` [Example 357, N-(2,6-dichloropyridin-3-yl)-1-((3-fluorophenyl)sulfonyl)-3-((methylamino)methyl)-1H-pyrrolo[3,2-c]pyridin-6-amine hydrochloride], the concentration for half-maximal inhibition (IC50) in test [1] worked out at 950 nM.
On the same count and under the same terms, next, `CNCc1cn(S(=O)(=O)c2cccc(F)c2)c2cc(Nc3ccc(C)nc3Cl)ncc12` [Example 358, N-(2-chloro-6-methylpyridin-3-yl)-1-((3-fluorophenyl)sulfonyl)-3-((methylamino)methyl)-1H-pyrrolo[3,2-c]pyridin-6-amine hydrochloride]: 1270 nM.
Still for that read-out and setting: next, `CNCc1cn(S(=O)(=O)c2cccc(F)c2)c2cc(Nc3ccc(C)cc3Cl)ncc12` [Example 359, N-(2-chloro-4-methylphenyl)-1-((3-fluorophenyl)sulfonyl)-3-((methylamino)methyl)-1H-pyrrolo[3,2-c]pyridin-6-amine hydrochloride]: 18300 nM.
